Assay results reported in US7692011B2, “8-hydroxy and 8-mercapto quinazolinones” (Prana Biotechnology Limited, priority 2002, dated 2010).
Several values for one entry are separate records, joined by “and”; a condition that tells them apart may be missing. Identical values can stand only once.

What was measured:
[1] = tested on: Aβ from post mortem human AD brain; assay: Assay 9 Human brain amyloid solubilisation assay; assay type: biochemical; set-up: key: (+): effective at solubilising plaques at more than 1 concentration relative to PBS; (−): not effective at solubilising plaques relative to PBS; conditions: relative to PBS
Description: Assay 9. Human Brain Amyloid Solubilisation Assay
This assay was performed in order to assess the ability of a test compound to mobilise Aβ from the insoluble to the soluble phase of an extract of tissue from post mortem human AD brain.
Up to 0.5 g of plaque-bearing cortex without meninges was homogenized using a DIAX 900 homogenizer (Heudolph and Co, Kelheim, Germany) or other suitable device for three 30-second periods at full speed in up to 2 ml of ice-cold phosphate-buffered saline, pH 7.4. To obtain the phosphate-buffered saline-extractable fraction, the homogenate was centrifuged at 100,000×g for 30 min and the supernatant removed. […]
Tris-Tricine polyacrylamide gel electrophoresis was performed by loading appropriately diluted samples on to 10% to 20% gradient gels (Novex, San Diego, Calif.) followed by transfer on to 0.2-μm nitrocellulose membrane (Bio-Rad, Hercules, Calif.). Aβ was detected by using monoclonal antibody W02, which detects residues 5 through 8, 17 (or another suitable antibody) in conjunction with horseradish peroxidase-conjugated rabbit anti-mouse IgG (Dako, Denmark), and visualized by using enhanced chemiluminescence (eg ECL; Amersham Life Science, Buckinghamshire, UK). […]
All samples were analysed several times, and gel loadings and dilutions were adjusted to fit within the quantifiable region of the standard curve. […]

[2] = Assay 16 Determination of mouse plasma levels of test compounds; assay type: in vivo; conditions: for Conc. in mouse plasma: oral 30 mg/kg
Description: [formula] [formula] [formula] • CLtotal=total plasma clearance after IV administration • Vdβ=volume of distribution during the elimination phase after IV administration • BA=oral bioavailability • AUCIV=area under the plasma concentration versus time profile from time zero to infinity after IV administration • AUCoral=area under the plasma concentration versus time profile from time zero to infinity after oral administration • β=terminal elimination rate constant after IV administration Assay 16 Determination of Mouse Plasma Levels of Test Compounds PBT 1061
Oral administration of PBT 1061 at 30 mg/kg, as a suspension in Na-Carboxymethyl Cellulose (CMC) was administered by oral gavage to four mice. Two mice were sacrificed 30 minutes after administration and two mice were sacrificed 60 minutes after administration. Blood was obtained by cardiac puncture and plasma separated by centrifugation.
The concentration of PBT1061 was determined by LC/MS using the ZQ instrument. The mobile phase consisted of an acetonitrile (ACN)/water gradient (containing 0.05% Formic acid) and the column was a Phenomenex Polar-RP […] 80A (50×2 mm) column.
The mouse plasma samples were directly injected following a protein precipitation with ACN. The analytical method in plasma was linear in the range of 125 to 10,000 ng/ml (R^2=0.9992). Diazepam was used as the internal standard. Recovery of PBT1061 from plasma was ˜100%.
Oral administration of PBT 1063 at 30 mg/kg, as a suspension in Na-Carboxymethyl Cellulose (CMC) was administered by oral gavage to four mice. Two mice were sacrificed 30 minutes after administration and two mice were sacrificed 60 minutes after administration. Blood was obtained by cardiac puncture and plasma separated by centrifugation.
The concentration of PBT1063 was determined by LC/MS using the single quadrupole instrument. The mobile phase consisted of an acetonitrile (ACN)/water gradient (containing 0.05% Formic acid) and the column was a Phenomenex C8 4 μm 80A (50×2 mm) column.
The supplied acute toxicity mouse plasma samples (delivered Feb. 9, 2003) were directly injected following a protein precipitation with ACN. Concentrations were determined by comparison to a calibration curve prepared in rat plasma. The analytical method in plasma was linear in the range of 312 to 10,000 ng/ml (R^2=0.9976). Diazepam was used as the internal standard. Recovery of PBT1063 from plasma was ˜42.9%.

Structure (SMILES) | Assay 9 Brain amyloid solubilisation [1] | Conc. in mouse plasma ([2]; 30 min, individual mouse) | Conc. in mouse plasma ([2]; 60 min, individual mouse) | concentration at 30 min ([2]; mouse, plasma, po, 30 mg/kg, 30 min, individual mouse (Table 2), read-out: Conc. in mouse plasma) [ng/mL] | concentration at 60 min ([2]; mouse, plasma, po, 30 mg/kg, 60 min, individual mouse (Table 2), read-out: Conc. in mouse plasma) [ng/mL] | Conc. in mouse plasma ([2]; 30 min, individual mouse (Table 2)) [ng/mL] | Conc. in mouse plasma ([2]; 60 min, individual mouse (Table 2)) [ng/mL]
Oc1c(N2CCOCC2)ncc2cccnc12 [PBT-1053, 7-Morpholin-4-yl-[1,6]naphthyridin-8-ol] | (+) | – | – | – | – | – | –
O=c1c2c(Cl)cc(Cl)c(O)c2ncn1C1CC1 [PBT-1061, 5,7-Dichloro-3-cyclopropyl-8-hydroxy-3H-quinazolin-4-one] | (+) | 1826.61 ng/mL and 5475.88 ng/mL | 2417.55 ng/mL and 1115.24 ng/mL | – | – | – | –
O=c1c(-c2ccc(Cl)cc2)cnc2c(O)c(I)ccn12 [PBT-1063, 3-(4-Chlorophenyl)-9-hydroxy-8-iodopyrido[1,2-a]pyrimidin-4-one] | – | – | – | 413 | 331 | 279.39 | 439.49
